US9220706B2, “Inhibition of leukemic stem cells by PP2A activating agents” (Ohio State Innovation Foundation, priority 2012, dated 2015)

Key:
CML cells = test: Long term culture-initiating cell (LTC-IC) assay; assay type: cell-based, human; conditions: drug during first week of 6-week culture, vs untreated
Method: Long term culture-initiating cell (LTC-IC) and Colony-forming cell (CFC)/replating assays. 2×10^6 mononuclear CML cells were cultured with a 1:1 mixture of irradiated (80 Gy) IL-3/G-CSF-producing M2-10B4 and IL-3/KL-producing SI/SI murine fibroblasts in MyeloCult H5100 (StemCell Technologies) supplemented with hydrocortisone. Drugs were present during the first week of culture. Medium was replaced after 7 days, followed by weekly half-medium changes. After 6 weeks, adherent and floating cells were harvested and 5×10^4 cells plated into MethoCult H4435. LTC-IC-derived colonies were scored after 14 days. For CFC/replating, individual 14-day colonies from 10^3-10^5 CD34+/CD38− CML or 0.2×10^3-10^3 leukemic LSK cells plated in 0.9% H4435 or M3234 MethoCult, respectively, containing KL, G-CSF, GM-CSF, IL-3, IL-6, and Epo were replated and scored 2 weeks later.

β-catenin = β-catenin immunofluorescence; assay type: cell-based, human
Source text: Immunofluorescence and proximity ligation assay. CD34^+/CD38^− cells from CML patient samples or LSK cells derived from induced leukemic mice were sorted, treated in liquid culture with the indicated drugs and cytospun onto glass slides. Slides were fixed in 3.7% formaldehyde, penneabilized with 0.05% Triton X-100, and stained with an Anti-®-catenin primary antibody (Cell signaling), a secondary goat F(ab′) anti-rabbit conjugated to Alexa Fluor 647, and the nuclear stain DAPI (Invitrogen); slides were mounted with Slowfade antifade reagent (Invitrogen). Microphotographs were obtained with a Zeiss LSM 510 confocal laser-scanning microscope with C-Apochromat 63/1.2 W objective. A minimum of three fields for each slide were acquired. For the Proximity Ligation Assay (PLA) CD34+/CD38− CML cells were treated, fixed, and permeabilized as described above. The slides were then simultaneously stained with a mix of mouse anti-PP2A (Millipore) and rabbit anti-SET (Globozyme) antibodies. The PLA procedure (Duolink; Olink Bioscience) was performed according to manufacturer instructions. An average of 20 z-stack ([…]) were captured with a Zeiss LSM 510 confocal laser-scanning microscope with C-Apochromat 63/1.2 W objective; at least three fields/slide were acquired. Three-dimensional projections were generated and positive signals/cell were calculated by ImageJ software (NIH).

Compound: CCCCCCCCc1ccc(CCC(N)(CO)CO)cc1 [FTY720]
- inhibition of LTC-ICs (CML cells): 60-70%
- β-catenin degradation (β-catenin; CD34^+/CD38^− CML, leukemic LSK, and 32D-BCR/ABL cells): induced β-catenin degradation
- β-catenin expression (β-catenin; Ph^+ CD34^+/CD38^− cells): markedly decreased
